Data as given in PMC3247180, “Polyamidoamine (PAMAM) dendrimer conjugate specifically activates the A3 adenosine receptor to improve post-ischemic/reperfusion function in isolated mouse hearts” (BMC Pharmacology, 2011).
Entries after “also recorded” stand apart in the source; their conditions may differ.

How the values were obtained:
mA3AR [1] = target: T1, mA3AR (Mus musculus, UniProt Q61618); assay: Radioligand ([125I]I-AB-MECA) competition binding, mA3AR
T1 construct: expressed in transfected cells; host or cells: HEK293
T1 sequence (Q61618 1-319): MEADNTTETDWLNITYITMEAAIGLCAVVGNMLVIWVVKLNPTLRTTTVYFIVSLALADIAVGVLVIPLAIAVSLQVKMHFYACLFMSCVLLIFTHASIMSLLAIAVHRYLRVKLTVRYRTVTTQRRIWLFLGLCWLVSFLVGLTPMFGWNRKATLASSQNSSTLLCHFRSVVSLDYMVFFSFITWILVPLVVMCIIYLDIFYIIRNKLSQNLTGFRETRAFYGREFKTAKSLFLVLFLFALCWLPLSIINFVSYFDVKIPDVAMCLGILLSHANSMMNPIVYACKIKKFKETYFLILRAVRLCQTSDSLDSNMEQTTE
Experimental: (§1) The competition assays were performed as previously published. Briefly, to prepare the membranes, HEK293 cells stably expressing recombinant mARs were harvested and homogenized in 10 mM Na^+-HEPES buffer (pH 7.4) with 10 mM EDTA and 0.1 mM benzamidine. The cell lysates were centrifuged (35,000 × g for 25 min; 4°C), and the pellets were resuspended in 10 mM Na^+-HEPES buffer (pH 7.4) with 1 mM EDTA and 0.1 mM benzamidine. The suspensions were homogenized and centrifuged again (35,000 × g for 25 min; 4°C). The resultant pellets were re-suspended in buffer containing 10% sucrose and stored at -80°C until use. For the radioligand binding assays, 50 μg cell membranes (100 μL) were incubated in 10 mM Na^+-HEPES buffer (pH 7.4) with 5 mM MgCl2, 5 U/mL ADA, and [^125I]I-AB-MECA as radioligand. The competing ligands of interest were added at various concentration ranges. The IC50 values were calculated using nonlinear regression analysis by fitting the data to the following equation: binding=nonspecific binding+total binding-nonspecific binding∕1+10^x-logIC50 Inhibition constant (Ki) values were calculated using the Cheng-Prusoff equation [36]. The concentration of MRS5246 reflected the concentration of the dendrimeric complex, not the individual ligand moieties. Therefore, all binding Ki values of this dendrimer are to be considered as Kiapp values.

mA1AR [2] = target: T2, mA1AR (Mus musculus, UniProt Q60612); assay: Radioligand ([125I]I-AB-MECA) competition binding, mA1AR; settings: recombinant mAR on HEK293 cell membranes, Kiapp for the dendrimer conjugate, read-out: mA1AR, Ki or Kiapp
T2 construct: expressed in transfected cells; host or cells: HEK293
T2 sequence (Q60612 1-326): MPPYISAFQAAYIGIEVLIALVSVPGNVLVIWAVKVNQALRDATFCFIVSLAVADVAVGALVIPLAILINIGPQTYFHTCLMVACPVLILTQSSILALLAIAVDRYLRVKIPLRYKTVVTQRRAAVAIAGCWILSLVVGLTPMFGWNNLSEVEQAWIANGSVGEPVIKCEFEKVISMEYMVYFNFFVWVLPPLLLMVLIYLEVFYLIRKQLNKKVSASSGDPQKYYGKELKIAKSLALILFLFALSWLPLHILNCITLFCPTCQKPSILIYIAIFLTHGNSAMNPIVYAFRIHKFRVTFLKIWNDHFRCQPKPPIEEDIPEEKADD
Experimental: as §1

mA3AR [3] = target: T1, mA3AR; assay: cAMP functional assay (inhibition of forskolin-stimulated cAMP production), mA3AR in HEK293 cells; format: cell-based
Experimental: (§2) The assays of cAMP (3',5'-cyclic adenosine monophosphate) were performed utilizing a modified protocol published by Nordstedt and colleagues, whereby cAMP content was determined by displacement of [^3H]cAMP binding to regulatory subunits of protein kinase A in bovine adrenal extracts. HEK293 cells heterologously expressing the mA3AR were prepared by plating 2.5 × 10^5 cells per well in 24-well plates and cultured overnight in complete media (DMEM with 10% fetal bovine serum/PenStrep/0.4 mg/mL G418) at 37°C. The cells were washed with DMEM/25 mM HEPES (pH 7.4) followed by incubation in DMEM/25 mM HEPES containing 20 μM Ro 20-1274 (phosphodiesterase inhibitor), 1 U/mL ADA and a combination of two selective A2BAR antagonists (300 nM CVT-6883 and 300 nM PSB603) at 37°C for 15 min. Forskolin (20 μM) to induce cAMP production and the test compounds of interest were then simultaneously added. A concentration range of ligands or dendrimer conjugates was tested in triplicate to inhibit cAMP production via activation of A1 or A3 ARs. After incubation at 37°C for 15 min, the media was aspirated, and the cells were lysed with 200 μL ice cold 0.1 M HCl on a shaker at 4°C for 30 min. The lysates were collected and cAMP levels in the acid extract were determined by competitive binding assays as follows. Each lysate sample and cAMP standard were diluted in 0.1 M HCl and subsequently transferred to polypropylene tubes (100 μL). [^3H]cAMP (12,000 cpm/100 μL water/tube) and protein extract from bovine adrenal tissue were then added (240 μg adrenal protein/tube at a concentration of 0.6 μg/μL, in the binding protein buffer: 100 mM Tris-HCl, 250 mM NaCl, 10 mM EDTA, 0.1% 2-mercaptoethanol, pH 8.0), with the extract isolated from bovine adrenal glands as described by Nordstedt, et al. to provide the cAMP binding substrate. The samples were incubated at 4°C for 2.5 hours and harvested through GF/C glass microfiber filters using a cell harvester (Brandel, Gaithersburg, MD) and counted in scintillation cocktail. […]

mA1AR [4] = target: T2, mA1AR; assay: cAMP functional assay (inhibition of forskolin-stimulated cAMP production), mA1AR in HEK293 cells; format: cell-based
Experimental: as §2, with “After incubation at 37°C for 15 min, the media was aspirated, and the cells were lysed with 200 μL ice cold 0.1 M HCl on a shaker at 4°C for 30 min.” left out, “Each lysate sample and cAMP standard were diluted in 0.1 M HCl and subsequently transferred to polypropylene tubes (100 μL). [^3H]cAMP (12,000 cpm/100 μL water/tube) and protein extract from bovine adrenal tissue were then added (240 μg adrenal protein/tube at a concentration of 0.6 μg/μL, in the binding protein buffer: 100 mM Tris-HCl, 250 mM NaCl, 10 mM EDTA, 0.1% 2-mercaptoethanol, pH 8.0), with the extract isolated from bovine adrenal glands as described by Nordstedt, et al. to provide the cAMP binding substrate.” left out

isolated mouse hearts = assay: Langendorff-perfused isolated mouse heart model of I/R (wild-type)
Experimental: MRS5246 and MRS5233 were tested for effects on functional improvement in isolated mouse hearts subjected to global ischemia and reperfusion. The agonists were infused into the coronary circulation of the hearts for 10 min immediately before 20 min of global ischemia. The functional recovery parameters (left ventricular developed pressure [LVDP], rate of contraction [dP/dtmax], rate of relaxation [dP/dtmin], and coronary flow [CF; mL/min/g]) of the hearts were assessed throughout reperfusion and after 45 min of reperfusion and compared to those of control hearts.
Isolated mouse heart experiments were performed as described previously. In brief, hearts were isolated from C57Bl/6J male mice and cannulated via the aorta and perfused in a retrograde fashion by Krebs-Henseleit buffer. Pressure measurements were obtained via a fluid-filled balloon inserted into the left ventricle via the mitral valve and connected to a pressure transducer. The hearts were immersed in warmed perfusion buffer to maintain the hearts at 37°C, and the balloons were inflated to achieve constant end-diastolic pressures of 5 to 10 mm Hg.
The hearts were perfused for 20 min to achieve stabilization and then paced at 420 beats/min for baseline functional measurements. Global ischemia was achieved by closing an in-line stopcock to stop perfusion for 20 min followed by 45 min of reperfusion by re-opening the stopcock. To examine the effect of the ligands and dendrimer conjugates on functional recovery, the hearts were perfused with buffer containing the indicated concentrations of compounds for 10 min immediately before ischemia.
All data are reported as means ± S.E.M. Functional recovery data in the isolated heart studies were analyzed by two-way repeated measures ANOVA. […] Left ventricular functional recoveries at 45 min of reperfusion were compared using one-way analysis of variance followed by Student's t test with the Bonferroni correction or an unpaired Student's t test, as appropriate. P < 0.05 was statistically significant.

hA3AR = settings: ref [13],[14]; cited from earlier work
hA2AAR = target: hA2AAR; design: method as in PMID 19499950, PMID 20036562; settings: ref [13],[14]; cited from earlier work
hA1AR = test system: hA1AR; design: method as in PMID 19499950, PMID 20036562; settings: at 10 μM; ref [13],[14]; cited from earlier work

## CNC(=O)[C@@]12C[C@@H]1[C@@H](n1cnc3c(NCc4cccc(Cl)c4)nc(C#CCCCCc4cn(CCNC(C)=O)nn4)nc31)[C@H](O)[C@@H]2O [MRS5233]
mA3AR [1]; [125I]I-AB-MECA, recombinant mAR on HEK293 cell membranes, Kiapp for the dendrimer conjugate, read-out: mA3AR, Ki or Kiapp
  Ki: 3.94 ± 0.31 nM
mA3AR [1]; mouse Ki vs reported human Ki
  fold greater affinity at mA3AR than at hA3AR: 5.7 fold
mA3AR [1]; mouse receptors, ratio of binding Ki
  Selectivity (A1 /A3): 169-fold
mA1AR [2]
  Ki: 665 ± 70 nM
mA3AR [3]; HEK293 cells overexpressing recombinant mARs
  agonist efficacy in cAMP assay: full agonists
mA3AR [3]; HEK293 cells, forskolin-stimulated
  IC50: 4 nM
mA3AR [3]; HEK293 cells, forskolin-stimulated, as printed in Figure 3, read-out: EC50, cAMP functional assay, mouse A3AR
  EC50: 4 ± 0.3 nM
mA1AR [4]; at 100 μM
  activity at the mA1AR in cAMP assay: inactive
mA1AR [4]; up to 0.1 mM
  inhibition of cAMP production at the A1AR: lacked inhibition
Isolated mouse hearts; 1 nM
  recovery of LVDP throughout reperfusion vs control: did not; also recorded: trend in improving LVDP over control
  recovery of rates of relaxation and contraction at 45 min reperfusion vs control: significantly better
Isolated mouse hearts; 10 nM
  recovery of LVDP throughout reperfusion vs control: significant improvement
  recovery of rates of relaxation and contraction at 45 min reperfusion vs control: significantly better
Isolated mouse hearts; 1 and 10 nM (MRS5246 in Figure 6 also 0.1 nM), infused 10 min before ischemia
  functional recovery after 20 min ischemia/45 min reperfusion compared to control: improved functional recovery compared to control in a concentration-dependent manner; also recorded: effective at increasing functional recovery; also recorded: significant protection starting at one nanomolar
hA3AR
  Ki: 22.3 ± 1.6 nM
hA2AAR
  Ki: 2440 ± 320 nM
hA1AR
  inhibition of radioligand binding at hA1AR: 12 ± 4%
